Like-named read-outs stand apart in the source and are kept apart here.
What was measured:
[1] = labeling according to EU legislation; cited from earlier work
[2] = Descaling efficiency upon short exposure, weight loss of marble plates (IKW protocol); details: for Average weight loss (g), plates: Example 1, 5% active matter acid solution, 10 seconds immersion + 10 minutes, five plates; for Weight difference plates: Example 3, short contact; for Weight loss plates: Example 4, acid levels 0, 1.5 or 3, solutions prepared 20 hours prior
Experimental: SÖFW-journal, 120, Jahrgang 13:94) for their descaling efficiency upon short exposure.
For each product, five oven-dry marble plates (Carrara marble, 75×150×5 mm, bought at Van Houten Malle) are weighted on a high precision balance and subsequently completely immersed during 10 seconds in a glass beaker holding 950 milliliter of a 5% active matter acid solution. The plates are then removed from the liquor, and put in upright position for 10 minutes during which the acid is allowed for further action. […] The weight loss due to the exposure to the acid is used as a measure for its descaling performance.
(§1) Solutions were allowed to stand until complete dissolution of the lactide before the descaling test was started.
(§2) The required volumes for filling the beakers were prepared as 3% active matter solutions, 20 hours prior to the test.

[3] = Descaling efficiency upon prolonged contact, weight loss of immersed marble blocks (IPP protocol); details: Example 3, 5% solution
[4] = as above; details: for Average weight loss (g), blocks: Example 2, 24 hours immersion in the acid solution, duplicate; for Weight loss blocks: Example 4, acid levels 0, 1.5 or 3
Experimental: as §1, §2

[5] = Dissolution and pH development of lactide in water; assay type: physicochemical
Excerpt: Slow-release lactide is commercially available from the company Galactic, Belgium.

[6] = cited from earlier work
[7] = footnote b: as % anhydrous at 25° C.; cited from earlier work
[8] = cited from earlier work; remark: listed apart in the source

CC(=O)O [Acetic]
label [1]: C, Xn

O=C(O)CC(O)(CC(=O)O)C(=O)O [Citric acid]
Average weight loss (g), plates [2]: 0.105 g
Weight difference plates ([2]; 5% solution): 0.0782 g
Weight loss plates [2]: 0.05778 g
Weight difference blocks [3]: 3.3186 g
Average weight loss (g), blocks [4]: 3.8461 g
Weight loss blocks ([4]; prolonged contact): 2.2648 g

O=C(O)CO [Glycolic acid]
label [1]: C, Xn
Average weight loss (g), plates [2]: 0.1629 g
Weight loss plates [2]: 0.1115 g
Average weight loss (g), blocks [4]: 2.629 g
Weight loss blocks ([4]; prolonged contact): 4.2873 g

CC(O)C(=O)O (stereo not drawn) [Lactic acid]
label [1]: Xi
Average weight loss (g), plates [2]: 0.1278 g
Weight loss plates [2]: 0.09616 g
Average weight loss (g), blocks [4]: 9.06 g
Weight loss blocks ([4]; prolonged contact): 5.2176 g

CC1OC(=O)C(C)OC1=O (stereo not drawn) [Lactide, 3,6-Dimethyl-1,4-dioxane-2,5-dione]
label [1]: Xi
Weight difference plates ([2]; 3% solution): 0.1129 g
Weight difference plates ([2]; 5% solution): 0.1365 g
Time for complete dissolution ([5]; room temperature, while stirring): at least 3 hours
Weight difference blocks [3]: 6.0445 g
Solubility water 20° C. ([6]; pH 7, 20° C.): Insol.^a
Weight difference blocks ([4]; Example 3, 3% solution, prolonged contact): 2.9844 g

O=C(O)CC(O)C(=O)O (stereo not drawn) [Malic acid]
label [1]: Xn
Average weight loss (g), plates [2]: 0.1457 g
Solubility calcium salt as % anhydrous at 25° C. [7]: 0.8%^b
Solubility water 20° C. ([6]; pH 7, 20° C.): >80%
Average weight loss (g), blocks [4]: 8.735 g

O=C(O)CCC(=O)O [Succinic acid]
label [1]: C, Xn
Average weight loss (g), plates [2]: 0.1376 g
Weight difference plates ([2]; 5% solution): 0.0899 g
Weight loss plates [2]: 0.08734 g
Weight difference blocks [3]: 7.2479 g
Average weight loss (g), blocks [4]: 9.304 g
Weight loss blocks ([4]; prolonged contact): 4.705 g

O=CO [formic]
label [1]: C, Xn

O=C(O)/C=C/C(=O)O [fumaric]
Solubility water 20° C. ([6]; pH 7): 64%

O=C(O)[C@H](O)[C@@H](O)[C@H](O)[C@H](O)CO [gluconic]
label [1]: Xn
Solubility water 20° C. ([6]; pH 7): >50%

O=C(O)CCCC(=O)O [glutaric]
label [1]: Xi
Solubility water 20° C. ([6]; pH 7, 20° C.): 50%

O=C(O)/C=C\C(=O)O [maleic]
Solubility water 20° C. ([6]; pH 7): >40%

O=C(O)CC(=O)O [malonic]
label [1]: Xn

O=C(O)C(=O)O [oxalic]
label [1]: C, Xn

CC1OC(=O)C(C)OC1=O (stereo not drawn) [slow-release lactide]
pH of 0.1 w/v % solution after 5 minutes ([5]; demineralized water, 25° C., 5 minutes): 3.7
pH of 0.1 w/v % solution after 10 minutes ([5]; demineralized water, 25° C., 10 minutes): 3.2
pH of 0.1 w/v % solution after 120 minutes ([5]; demineralized water, 25° C., 120 minutes): 2.5

NS(=O)(=O)O [sulfamic]
label [1]: C, Xn, N
pKa (first value) [8]: 0.1

O=S(=O)(O)O [sulfuric]
label [1]: C, T

From patent US8415285B2, “Composition for the prevention or removal of insoluble salt deposits” (Ecover Coordination Center N.V., priority 2010, dated 2013)
